The assay has as its target T1, Human TRPC6 (Homo sapiens, UniProt Q9Y210).
T1 construct: expressed in transfected cells
T1 sequence (Q9Y210 1-931): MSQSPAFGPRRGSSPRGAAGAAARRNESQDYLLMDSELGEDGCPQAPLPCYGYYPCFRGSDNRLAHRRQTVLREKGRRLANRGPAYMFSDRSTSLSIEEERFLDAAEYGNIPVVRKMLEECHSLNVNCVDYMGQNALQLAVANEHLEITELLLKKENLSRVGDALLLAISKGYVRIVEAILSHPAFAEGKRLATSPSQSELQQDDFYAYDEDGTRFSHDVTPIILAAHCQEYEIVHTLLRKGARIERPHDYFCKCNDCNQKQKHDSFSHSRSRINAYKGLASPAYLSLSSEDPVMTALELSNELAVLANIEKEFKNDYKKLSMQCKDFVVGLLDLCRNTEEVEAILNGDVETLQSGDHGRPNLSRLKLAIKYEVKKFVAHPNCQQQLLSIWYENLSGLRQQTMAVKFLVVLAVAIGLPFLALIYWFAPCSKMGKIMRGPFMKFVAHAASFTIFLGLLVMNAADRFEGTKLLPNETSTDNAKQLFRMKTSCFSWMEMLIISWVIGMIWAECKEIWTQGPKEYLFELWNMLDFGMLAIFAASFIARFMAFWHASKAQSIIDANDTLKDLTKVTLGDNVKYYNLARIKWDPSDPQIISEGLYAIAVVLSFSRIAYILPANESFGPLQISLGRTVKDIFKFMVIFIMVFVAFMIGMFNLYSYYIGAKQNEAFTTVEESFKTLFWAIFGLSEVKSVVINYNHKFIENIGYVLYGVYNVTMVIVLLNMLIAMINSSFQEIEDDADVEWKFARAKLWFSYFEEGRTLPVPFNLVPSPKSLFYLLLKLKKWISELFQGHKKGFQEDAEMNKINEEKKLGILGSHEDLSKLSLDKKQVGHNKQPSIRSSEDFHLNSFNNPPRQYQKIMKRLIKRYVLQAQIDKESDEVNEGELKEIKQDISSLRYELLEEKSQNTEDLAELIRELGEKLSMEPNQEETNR
The assay can be described thus: Evaluation of TRPC6 channel inhibitory activity (1), FLIPR Calcium 5 Assay Kit, OAG stimulation (Compound Nos. 1-1293). Type of assay: cell-based. The conditions noted are these: Human TRPC6 stably-expressing cells, OAG 30 μM, FLIPR Calcium 5 Assay Kit; read-out: Inhibitory activity (pIC50 class) (converted). The procedure, abridged:
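Stable human TRPC6 line; fluorescent Ca2+ dye loading, then 20 min compound exposure before 30 μM OAG trigger. Peak-minus-baseline signal converted to % inhibition against untreated and unstimulated wells; potency given as pIC50 band.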
For `Cc1cc(Oc2cc(C#N)ccc2-c2ccc([C@H](O)CN)cn2)cc(-c2ccccn2)n1` [compound 691, 4-[5-[(1S)-2-amino-1-hydroxyethyl]pyridin-2-yl]-3-(2-methyl-6-pyridin-2-ylpyridin-4-yl)oxybenzonitrile], the IC50 is under 0.01 µM.

Turning to `Cc1nc(Oc2cc(C#N)ccc2-c2ncc([C@H](O)CN)cn2)cc(-c2ccccc2)n1` [compound 526, 4-[5-[(1S)-2-amino-1-hydroxyethyl]pyrimidin-2-yl]-3-(2-methyl-6-phenylpyrimidin-4-yl)oxybenzonitrile], the IC50 was under 0.01 µM.

On to `Cn1ccnc1-c1cc(Oc2cc(C#N)ccc2-c2ncc(CN)cn2)n(C)n1` [compound 936, 4-[5-(aminomethyl)pyrimidin-2-yl]-3-[2-methyl-5-(1-methylimidazol-2-yl)pyrazol-3-yl]oxybenzonitrile], for which the IC50 was 0.01 to 1 µM.

`Cc1cnc(-c2cc(Oc3cc(C#N)ccc3-c3ncc(CN)cn3)n(C)n2)s1` [compound 960, 4-[5-(aminomethyl)pyrimidin-2-yl]-3-[2-methyl-5-(5-methyl-1,3-thiazol-2-yl)pyrazol-3-yl]oxybenzonitrile]: the IC50 was 0.01 to 1 µM.

Take `Cc1nc(-c2ccccc2)cn1Cc1cc(C#N)ccc1-c1ccc(CCN)cn1` [compound 1150, 4-[5-(2-aminoethyl)pyridin-2-yl]-3-[(2-methyl-4-phenylimidazol-1-yl)methyl]benzonitrile]: the IC50 was under 0.01 µM.

Consider `CCNc1cc(Oc2cc(C#N)ccc2-c2ncc(CN)cn2)nc(C)n1` [compound 631, 4-[5-(aminomethyl)pyrimidin-2-yl]-3-[6-(ethylamino)-2-methylpyrimidin-4-yl]oxybenzonitrile], for which the IC50 is 0.01 to 1 µM.

For the compound `Cc1cc(Oc2cc(C#N)ccc2-c2ncc(CCN)cn2)cc(N2CCOC[C@@H]2C)n1` [compound 471, 4-[5-(2-aminoethyl)pyrimidin-2-yl]-3-[2-methyl-6-[(3S)-3-methylmorpholin-4-yl]pyridin-4-yl]oxybenzonitrile], the IC50 was under 0.01 µM.

As for `Cc1c(Oc2cc(F)ccc2-c2ncc(CCN)cn2)cnn1CC(C)(C)C` [compound 986, 2-[2-[2-[1-(2,2-dimethylpropyl)-5-methylpyrazol-4-yl]oxy-4-fluorophenyl]pyrimidin-5-yl]ethanamine], the IC50 is 0.01 to 1 µM.

In the case of `Cc1nc(Oc2cc(C#N)ccc2-c2ncc(CN)cn2)cc(OC2CCC2)n1` [compound 788, 4-[5-(aminomethyl)pyrimidin-2-yl]-3-(6-cyclobutyloxy-2-methylpyrimidin-4-yl)oxybenzonitrile], the IC50 was over 1 µM.

Turning to `Cc1nc(Sc2cc(C#N)ccc2-c2ccc(CCN)cn2)cc(N2CCCC2)n1` [compound 1250, 4-[5-(2-aminoethyl)pyridin-2-yl]-3-(2-methyl-6-pyrrolidin-1-ylpyrimidin-4-yl)sulfanylbenzonitrile], the IC50 was 0.01 to 1 µM.

Regarding `CN(C)c1cc(Oc2cc(C#N)ccc2-c2ccc(CN)cn2)n(C)n1` [compound 623, 4-[5-(aminomethyl)pyridin-2-yl]-3-[5-(dimethylamino)-2-methylpyrazol-3-yl]oxybenzonitrile], the IC50 was under 0.01 µM.

As to `N#Cc1ccc(-c2ncc(CN)cn2)c(Oc2cncc(N3CCOCC3)c2)c1` [compound 918, 4-[5-(aminomethyl)pyrimidin-2-yl]-3-(5-morpholin-4-ylpyridin-3-yl)oxybenzonitrile], the IC50 is over 1 µM.

`Cn1nc(-c2ccccn2)cc1Cc1cc(C#N)ccc1-c1ncc(CCN)cn1` [compound 1214, 4-[5-(2-aminoethyl)pyrimidin-2-yl]-3-[(2-methyl-5-pyridin-2-ylpyrazol-3-yl)methyl]benzonitrile]: the IC50 was under 0.01 µM.

`Cc1nn(-c2ccccn2)cc1Oc1cc(C#N)ccc1-c1ncc(CCN)cn1` [compound 832, 4-[5-(2-aminoethyl)pyrimidin-2-yl]-3-(3-methyl-1-pyridin-2-ylpyrazol-4-yl)oxybenzonitrile]: the IC50 was under 0.01 µM.

(Values after patent US20230167073A1 (Teijin Pharma Limited, priority 2020, published 2023).)
